# Experimental data reported in US6642216B2, “Isoprenoid pathway inhibitors for stimulating bone growth” (ZymoGenetics Corporation, priority 1996, dated 2003).
# Columns and labels:
# [1] = system: BMP-2 promoter; assay: ABA assay: BMP-2 promoter-luciferase reporter in 2T3-BMP-2-LUC osteoblast cells; assay type: cell-based, mouse
# Protocol: These transformed cells are then evaluated for the production of the reporter gene product; compounds that activate the BMP promoter will drive production of the reporter protein, which can be readily assayed.
# The cells were cultured using α-MEM, 10% FCS with 1% penicillin/streptomycin and 1% glutamine (“plating medium”), and were split 1:5 once per week. For the assay, the cells were resuspended in a plating medium containing 4% FCS, plated in microtiter plates at a concentration of 5×10^3 cells (in 50 μl)/well, and incubated for 24 hours at 37° C. in 5% CO2. To initiate the assay, 50 μl of the test compound or the control in DMSO was added at 2× concentration to each well, so that the final volume was 100 μl. The final serum concentration was 2% FCS, and the final DMSO concentration was 1%.
# The treated cells were incubated for 24 hours at 37° C. and 5% CO2. The medium was then removed, and the cells were rinsed three times with PBS. After removal of excess PBS, 25 μl of 1× cell culture lysing reagent (Promega #E153A) was added to each well and incubated for at least ten minutes. Optionally, the plates/samples could be frozen at this point. To each well was added 50 μl of luciferase substrate (Promega #E152A; 10 ml Promega luciferase assay buffer per 7 mg Promega luciferase assay substrate). Luminescence was measured on an automated 96-well luminometer, and was expressed as either picograms of luciferase activity per well or as picograms of luciferase activity per microgram of protein.
# Alternatively, the reactivity of a compound to be tested can be compared directly to a negative control containing no compound.
# [2] = system: neonatal mouse calvaria; assay: Neonatal mouse calvaria assay (in vitro bone formation); assay type: cell-based
# Protocol: Briefly, four days after birth, the front and parietal bones of ICR Swiss white mouse pups are removed by microdissection and split along the sagittal suture.
# Three μm sections of the calvaria are prepared. Representative sections are selected for histomorphometric assessment of bone formation or bone resorption. Bone changes are measured on sections cut 200 μm apart. Osteoblasts and osteoclasts are identified by their distinctive morphology.
# Selected compounds and appropriate controls were assayed in vitro (ex vivo) for bone formation activity (described above in “Neonatal Mouse Calvaria Assay (in vitro)”). Histomorphometrical assessments of ex vivo calvaria were carried out using an OsteoMetrics bone morphometry measurement program, according to the manufacturer's instructions. Measurements were determined using either a 10- or 20-fold objective with a standard point counting eyepiece graticule.
# New bone formation was determined (using a 10× objective) by measuring the new bone area formed in one field in 3 representative sections of each bone (4 bones per group). Each measurement was carried out ½ field distance from the end of the suture. Both total bone and old bone area were measured. Data were expressed as new bone area in mm^2.
# Osteoblast numbers were determined by point counting. The number of osteoblast cells lining the bone surface on both sides of the bone were counted in one field using a 20× objective. Data were expressed as osteoblast numbers/mm of bone surface.
# The results were calculated as new bone area in mm^2×10^−3, as above.
# [3] = under these conditions (0.1-1000 μM)
# [4] = Experiment 3, 8.88178E μg/ml (0.002193 μM lovastatin, 0.002087 μM fluvastatin)
structure (smiles),measurement,setting,value
"c1ccc(N=NC2=NNc3ccccc3S2)cc1 [59-0008, 3-phenylazo-1H-4,1,2-benzothiadiazine]",concentration at which reactivity is maximal,[1],3 to 10 µM
"CC[C@H](C)C(=O)O[C@H]1C[C@H](O)C=C2C=C[C@H](C)[C@H](CC[C@@H](O)C[C@@H](O)CC(=O)O)[C@H]21 [Pravastatin, pravastatin]",% 59-0008 Response,"[1]; Experiment 1, 0.195312 μg/ml",−4.390%
same,Fold increase over negative control,"[1]; Experiment 1, 0.195312 μg/ml",0.807 fold
same,% 59-0008 Response,"[1]; Experiment 1, 0.390625 μg/ml",−1.290%
same,Fold increase over negative control,"[1]; Experiment 1, 0.390625 μg/ml",0.943 fold
same,% 59-0008 Response,"[1]; Experiment 1, 0.78125 μg/ml",−1.980%
same,Fold increase over negative control,"[1]; Experiment 1, 0.78125 μg/ml",0.913 fold
same,% 59-0008 Response,"[1]; Experiment 1, 1.5625 μg/ml",−1.120%
same,Fold increase over negative control,"[1]; Experiment 1, 1.5625 μg/ml",0.951 fold
same,% 59-0008 Response,"[1]; Experiment 1, 3.125 μg/ml",0.380%
same,Fold increase over negative control,"[1]; Experiment 1, 3.125 μg/ml",1.017 fold
same,% 59-0008 Response,"[1]; Experiment 1, 6.25 μg/ml",0.920%
same,Fold increase over negative control,"[1]; Experiment 1, 6.25 μg/ml",1.040 fold
same,% 59-0008 Response,"[1]; Experiment 1, 12.5 μg/ml",1.110%
same,Fold increase over negative control,"[1]; Experiment 1, 12.5 μg/ml",1.049 fold
same,% 59-0008 Response,"[1]; Experiment 1, 25 μg/ml",3.520%
same,Fold increase over negative control,"[1]; Experiment 1, 25 μg/ml",1.155 fold
same,% 59-0008 Response,"[1]; Experiment 1, 50 μg/ml",5.000%
same,Fold increase over negative control,"[1]; Experiment 1, 50 μg/ml",1.220 fold
same,% 59-0008 Response,"[1]; Experiment 1, 100 μg/ml",7.620%
same,Fold increase over negative control,"[1]; Experiment 1, 100 μg/ml",1.335 fold
same,% 59-0008 Response,"[1]; Experiment 1, 200 μg/ml",11.670%
same,Fold increase over negative control,"[1]; Experiment 1, 200 μg/ml",1.513 fold
"O=P(O)(O)C(Cl)(Cl)P(=O)(O)O [Clodronate, clodronate]",New Bone Area,"[2]; other bisphosphonates, 10 μM",4.8 ± 1.3 mm^2 × 10^−3
same,New Bone Area,"[2]; other bisphosphonates, 100 μM",4.6 ± 0.6 mm^2 × 10^−3
same,New Bone Area,"[2]; other bisphosphonates, 1000 μM",3.5 ± 0.5 mm^2 × 10^−3
same,effect on new bone area,[2]; [3],negligible effects
"NCCC(O)(P(=O)(O)O)P(=O)(O)O [Pamidronate, pamidronate]",New Bone Area,"[2]; other bisphosphonates, 10 μM",6.0 ± 0.5 mm^2 × 10^−3
same,New Bone Area,"[2]; other bisphosphonates, 100 μM",5.8 ± 0.6 mm^2 × 10^−3
same,New Bone Area,"[2]; other bisphosphonates, 1000 μM",5.2 ± 0.6 mm^2 × 10^−3
same,effect on new bone area,[2]; [3],negligible effects
"O=P(O)(O)C(O)(Cc1cccnc1)P(=O)(O)O [Risedronate, risedronate]",effect on new bone area,[2]; 10 μM and 100 μM,significant increases in new bone area
same,New Bone Area,"[2]; other bisphosphonates, 10 μM",8.5 ± 0.5 mm^2 × 10^−3
same,New Bone Area,"[2]; other bisphosphonates, 100 μM",7.3 ± 1.9 mm^2 × 10^−3
same,New Bone Area,"[2]; other bisphosphonates, 1000 μM",Toxic
"CC(C)n1c(/C=C/C(O)CC(O)CC(=O)O)c(-c2ccc(F)cc2)c2ccccc21 (centres unmarked) [Fluvastatin, fluvastatin]",% 59-0008 Response,"[1]; Experiment 1, 0.195312 μg/ml",36.820%
same,Fold increase over negative control,"[1]; Experiment 1, 0.195312 μg/ml",2.630 fold
same,% 59-0008 Response,"[1]; Experiment 1, 0.390625 μg/ml",28.080%
same,Fold increase over negative control,"[1]; Experiment 1, 0.390625 μg/ml",2.243 fold
same,% 59-0008 Response,"[1]; Experiment 1, 0.78125 μg/ml",75.160%
same,Fold increase over negative control,"[1]; Experiment 1, 0.78125 μg/ml",4.328 fold
same,% 59-0008 Response,"[1]; Experiment 1, 1.5625 μg/ml",117.980%
same,Fold increase over negative control,"[1]; Experiment 1, 1.5625 μg/ml",6.223 fold
same,% 59-0008 Response,"[1]; Experiment 1, 3.125 μg/ml",173.280%
same,Fold increase over negative control,"[1]; Experiment 1, 3.125 μg/ml",8.672 fold
same,% 59-0008 Response,"[1]; Experiment 1, 6.25 μg/ml",165.630%
same,Fold increase over negative control,"[1]; Experiment 1, 6.25 μg/ml",8.333 fold
same,% 59-0008 Response,"[1]; Experiment 1, 12.5 μg/ml",164.450%
same,Fold increase over negative control,"[1]; Experiment 1, 12.5 μg/ml",8.281 fold
same,% 59-0008 Response,"[1]; Experiment 1, 25 μg/ml",137.500%
same,Fold increase over negative control,"[1]; Experiment 1, 25 μg/ml",7.088 fold
same,% 59-0008 Response,"[1]; Experiment 1, 50 μg/ml",−22.660%
same,Fold increase over negative control,"[1]; Experiment 1, 50 μg/ml",−0.003 fold
same,% 59-0008 Response,"[1]; Experiment 1, 200 μg/ml",−22.700%
same,Fold increase over negative control,"[1]; Experiment 1, 200 μg/ml",−0.005 fold
same,% 59-0008 Response,"[1]; Experiment 3, 0.002842 μg/ml",−3.26%
same,Fold increase over negative control,"[1]; Experiment 3, 0.002842 μg/ml",0.83 fold
same,% 59-0008 Response,"[1]; Experiment 3, 0.009094 μg/ml",−3.84%
same,Fold increase over negative control,"[1]; Experiment 3, 0.009094 μg/ml",0.8 fold
same,% 59-0008 Response,"[1]; Experiment 3, 0.029103 μg/ml",−5.18%
same,Fold increase over negative control,"[1]; Experiment 3, 0.029103 μg/ml",0.73 fold
same,% 59-0008 Response,"[1]; Experiment 3, 0.093132 μg/ml",−2.11%
same,Fold increase over negative control,"[1]; Experiment 3, 0.093132 μg/ml",0.89 fold
same,% 59-0008 Response,"[1]; Experiment 3, 0.298023 μg/ml",−3.26%
same,Fold increase over negative control,"[1]; Experiment 3, 0.298023 μg/ml",0.83 fold
same,% 59-0008 Response,"[1]; Experiment 3, 0.953674 μg/ml",2.3%
same,Fold increase over negative control,"[1]; Experiment 3, 0.953674 μg/ml",1.12 fold
same,% 59-0008 Response,"[1]; Experiment 3, 3.051757 μg/ml",22.66%
same,Fold increase over negative control,"[1]; Experiment 3, 3.051757 μg/ml",2.18 fold
same,% 59-0008 Response,"[1]; Experiment 3, 9.765625 μg/ml",103.7%
same,Fold increase over negative control,"[1]; Experiment 3, 9.765625 μg/ml",6.4 fold
same,% 59-0008 Response,"[1]; Experiment 3, 31.25 μg/ml",122.53%
same,Fold increase over negative control,"[1]; Experiment 3, 31.25 μg/ml",7.38 fold
same,% 59-0008 Response,[1]; [4],−0.19%
same,Fold increase over negative control,[1]; [4],0.99 fold
CC(O)(CCO)CC(=O)O (centres unmarked) [mevalonate],effect of mevalonic acid on primary screen activity of 59-0008,[1],no effect
same,effect of added mevalonate on the activity of mevastatin in the ABA assay,"[1]; mevalonate 25-800 μM, mevastatin 100, 25, or 6.25 μM",inhibits the activity of mevastatin
"NCCCC(O)(P(=O)(O)O)P(=O)(O)O [Alendronate, alendronate]",New Bone Area,"[2]; other bisphosphonates, 0.1 μM",3.5 ± 0.3 mm^2 × 10^−3
same,New Bone Area,"[2]; other bisphosphonates, 1 μM",5.2 ± 0.5 mm^2 × 10^−3
same,New Bone Area,"[2]; other bisphosphonates, 10 μM",3.3 ± 0.6 mm^2 × 10^−3
same,New Bone Area,"[2]; other bisphosphonates, 100 μM",Toxic
same,effect on new bone area,[2]; [3],negligible effects
"CCCCCN(C)CCC(O)(P(=O)(O)O)P(=O)(O)O [Ibandronate, ibandronate]",effect on bone formation (dose response curves),[2]; 10 μM,significant increase of bone formation
same,New Bone Area,"[2]; Experiment 1, 10 μM",8.3 ± 0.7 mm^2 × 10^−3
same,New Bone Area,"[2]; Experiment 1, 100 μM",Toxic
same,New Bone Area,"[2]; Experiment 1, 1000 μM",Toxic
same,New Bone Area,"[2]; Experiment 2, 0.01 μM",3.5 ± 0.43 mm^2 × 10^−3
same,New Bone Area,"[2]; Experiment 2, 0.1 μM",3.2 ± 0.56 mm^2 × 10^−3
same,New Bone Area,"[2]; Experiment 2, 1 μM",4.9 ± 1.2 mm^2 × 10^−3
same,New Bone Area,"[2]; Experiment 2, 10 μM",7.2 ± 0.7 mm^2 × 10^−3
same,New Bone Area,"[2]; Experiment 2, 100 μM",Toxic
same,New Bone Area,"[2]; Experiment 2, 1000 μM",Toxic
same,New Bone Area,"[2]; Experiment 3, 0.1 μM",6.2 ± 0.6 mm^2 × 10^−3
same,New Bone Area,"[2]; Experiment 3, 1 μM",7.5 ± 0.7 mm^2 × 10^−3
same,New Bone Area,"[2]; Experiment 3, 10 μM",9.5 ± 2.4 mm^2 × 10^−3
same,New Bone Area,"[2]; Experiment 3, 100 μM",Toxic
same,New Bone Area,"[2]; combination study, IBN (1 μM), ibandronate 1 μM alone",3.95 ± 0.28 mm^2 × 10^−3
same,New Bone Area,"[2]; combination study, IBN (10 μM), ibandronate 10 μM alone",6.03 ± 1.56 mm^2 × 10^−3
